Reference: patent publication US12653186B2, “[(1-phenyl-5-(heteroaryl)-1H-1,2,4-triazol-3-yl)oxy] acetic acid derivatives as safeners for the protection of useful plants and crop plants” (BAYER AKTIENGESELLSCHAFT, priority 2020, dated 2026)

Experiments:
summer barley (HORVS) = assay: Reduction of damage by mesosulfuron-methyl on summer barley (safener action, greenhouse, post-emergence); format: in vivo, summer barley (HORVS; cv. Montoya); design: key: 0: no reduction in damage (appearance corresponding to the herbicide control); 1: slight reduction in damage; 2: distinct reduction in damage; 3: significant reduction in damage; 4: complete reduction in damage (appearance corresponding to the untreated control); settings: then mesosulfuron-methyl 40-60 g/ha, visual assessment 9-13 days after application, 2 repeats
Method: (§1) 2.2 Relative Action of Selected Compounds of the Invention Using the Example of Reduction of Damage by Mesosulfuron-Methyl on Summer Barley (HORVS) The seeds of the crop plants to be treated are laid out in sandy loam in plastic pots (diameter ˜4 cm), covered with soil and grown in a greenhouse under good conditions for germination and growth. The trial plants were treated at the early leaf stage (BBCH10-BBCH12). In the course of this, the inventive compounds of the general formula (I) formulated in the form of wettable powders (WP) were sprayed onto the above-ground parts of the plants as an aqueous suspension with a water application rate corresponding to 800 l/ha with addition of wetting agent (e.g. 0.2% Genapol-LRO or 0.2% Mero) in the specified dose. This was followed by the application of the herbicide. For this purpose, mesosulfuron-methyl, formulated in the form of water-dispersible granules (WG), was sprayed onto the above-ground parts of the plants in the form of an aqueous dispersion with a water application rate corresponding to 800 l/ha with addition of wetting agent (e.g. 0.2% Genapol-LRO or 1 l/ha Biopower) in a dose of 40-60 g/ha. The dose of the herbicide was chosen here such that it causes visually apparent damage (min. 30%, max. 75%) compared to untreated crop plants at the evaluation time on a control group of crop plants without safener treatment that were included in the same trial. After application, the plants were cultivated under good growth conditions in a greenhouse. 9-13 days after application, the efficacy of the test compounds was assessed visually. For this purpose, the appearance of the plants treated with the test compound and herbicide was compared to the corresponding herbicide controls (without safener; with clearly visible damage) and the untreated controls (without damage). The damage-reducing effect of the test compounds was expressed here separately for 2 repeats in graded efficacy codes according to the following scheme: • 0: no reduction in damage (appearance corresponding to the herbicide control) • 1: slight reduction in damage • 2: distinct reduction in damage • 3: significant reduction in damage • 4: complete reduction in damage (appearance corresponding to the untreated control) The trials show clear efficacy of the inventive compounds selected by way of example with regard to the reduction in damage to the summer barley crop plant (HORVS; cv. Montoya) caused by the herbicide mesosulfuron-methyl: […]

summer wheat (TRZAS) = assay: Reduction of damage by mesosulfuron-methyl on summer wheat (safener action, greenhouse, post-emergence); format: in vivo, summer wheat (TRZAS; cv. Triso); design: key: 0: no reduction in damage (appearance corresponding to the herbicide control); 1: slight reduction in damage; 2: distinct reduction in damage; 3: significant reduction in damage; 4: complete reduction in damage (appearance corresponding to the untreated control); settings: then mesosulfuron-methyl 40-60 g/ha, visual assessment 9-13 days after application
Method: as §1, with “2.1” for “2.2”, “Wheat (TRZAS)” for “Barley (HORVS)”, “here” for “here separately for 2 repeats”, “wheat” for “barley”, “(TRZAS;” for “(HORVS;”, “Triso)” for “Montoya)”

CCOC(=O)COc1nc(-c2ccc(Cl)cn2)n(-c2ccc(F)cc2F)n1 [I.29-38]
Efficacy of the safener (efficacy code) (summer barley (HORVS); safener 100 g/ha): 2 | Efficacy of the safener (efficacy code) (summer wheat (TRZAS); safener 100 g/ha): 2

COC(=O)COc1nc(-c2ccc(F)cn2)n(-c2ccc(Cl)cc2F)n1 [I.31-49]
Efficacy of the safener (efficacy code) (summer barley (HORVS); safener 100 g/ha): 2 | Efficacy of the safener (efficacy code) (summer wheat (TRZAS); safener 100 g/ha): 2

COC(=O)CCOC(=O)COc1nc(-c2ccc(Cl)cn2)n(-c2ccc(F)cc2F)n1 [I.67-38]
Efficacy of the safener (efficacy code) (summer wheat (TRZAS); safener 100 g/ha): 2

COC(=O)COc1nc(-c2ccc(Cl)cn2)n(-c2ccc(F)cc2F)n1 [I.28-38, Methyl {[5-(5-chloropyridin-2-yl)-1-(2,4-difluorophenyl)-1H-1,2,4-triazol-3-yl]oxy}acetate]
Efficacy of the safener (efficacy code) (summer barley (HORVS); safener 100 g/ha): 2

CCOC(=O)COc1nc(-c2ccc(Cl)cn2)n(-c2ccccc2F)n1 [I.29-2]
Efficacy of the safener (efficacy code) (summer wheat (TRZAS); safener 100 g/ha): 2

COC(=O)COc1nc(-c2ccc(F)cn2)n(-c2ccc(Cl)cc2)n1 [I.31-7]
Efficacy of the safener (efficacy code) (summer barley (HORVS); safener 100 g/ha): 2 | Efficacy of the safener (efficacy code) (summer wheat (TRZAS); safener 100 g/ha): 2

COC(=O)COc1nc(-c2ccc(F)cn2)n(-c2ccc(F)cc2Cl)n1 [I.31-48]
Efficacy of the safener (efficacy code) (summer barley (HORVS); safener 100 g/ha): 2 | Efficacy of the safener (efficacy code) (summer wheat (TRZAS); safener 100 g/ha): 2

COC(=O)COc1nc(-c2ccc(F)cn2)n(-c2ccc(F)cc2F)n1 [I.31-38]
Efficacy of the safener (efficacy code) (summer wheat (TRZAS); safener 100 g/ha): 2

O=C(O)COc1nc(-c2ccc(F)cn2)n(-c2ccc(F)cc2)n1 [I.33-4]
Efficacy of the safener (efficacy code) (summer wheat (TRZAS); safener 100 g/ha): 2

CCOC(=O)COc1nc(-c2ccc(F)cn2)n(-c2ccc(F)cc2)n1 [I.32-4]
Efficacy of the safener (efficacy code) (summer wheat (TRZAS); safener 100 g/ha): 2

CCOC(=O)COc1nc(-c2ccc(F)cn2)n(-c2ccc(Cl)cc2F)n1 [I.32-49]
Efficacy of the safener (efficacy code) (summer barley (HORVS); safener 100 g/ha): 2 | Efficacy of the safener (efficacy code) (summer wheat (TRZAS); safener 100 g/ha): 2

CCOC(=O)COc1nc(-c2ccc(F)cn2)n(-c2ccc(Cl)cc2)n1 [I.32-7]
Efficacy of the safener (efficacy code) (summer barley (HORVS); safener 100 g/ha): 2-3 | Efficacy of the safener (efficacy code) (summer wheat (TRZAS); safener 100 g/ha): 2

COC(=O)COc1nc(-c2ncccc2F)n(-c2ccccc2)n1 [I.64-1]
Efficacy of the safener (efficacy code) (summer barley (HORVS); safener 500 g/ha): 2 | Efficacy of the safener (efficacy code) (summer wheat (TRZAS); safener 100 g/ha): 2 | Efficacy of the safener (efficacy code) (summer wheat (TRZAS); safener 500 g/ha): 2

CCOC(=O)COc1nc(-c2ccc(F)cn2)n(-c2ccc(F)cc2F)n1 [I.32-38]
Efficacy of the safener (efficacy code) (summer barley (HORVS); safener 100 g/ha): 2 | Efficacy of the safener (efficacy code) (summer wheat (TRZAS); safener 100 g/ha): 2

CCOC(=O)COc1nc(-c2ccc(F)cn2)n(-c2ccccc2F)n1 [I.32-2]
Efficacy of the safener (efficacy code) (summer wheat (TRZAS); safener 100 g/ha): 2

COCCOC(=O)COc1nc(-c2ccc(Cl)cn2)n(-c2ccc(F)cc2F)n1 [I.73-38]
Efficacy of the safener (efficacy code) (summer barley (HORVS); safener 100 g/ha): 2-3

O=C(COc1nc(-c2ccc(Cl)cn2)n(-c2ccc(F)cc2F)n1)OCC1CCCO1 (centres unmarked) [I.68-38]
Efficacy of the safener (efficacy code) (summer barley (HORVS); safener 100 g/ha): 2 | Efficacy of the safener (efficacy code) (summer wheat (TRZAS); safener 100 g/ha): 2

COC(=O)COc1nc(-c2ccncc2Cl)n(-c2ccc(Cl)cc2F)n1 [I.43-49]
Efficacy of the safener (efficacy code) (summer barley (HORVS); safener 100 g/ha): 2

O=C(COc1nc(-c2ccc(Cl)cn2)n(-c2ccc(F)cc2F)n1)OCC1CC1 [I.80-38, Cyclopropylmethyl {[5-(5-chloropyridin-2-yl)-1-(2,4-difluorophenyl)-1H-1,2,4-triazol-3-yl]oxy}acetate]
Efficacy of the safener (efficacy code) (summer wheat (TRZAS); safener 100 g/ha): 2

O=C(COc1nc(-c2ccc(Cl)cn2)n(-c2ccc(F)cc2F)n1)OCC1OCCO1 [I.70-38]
Efficacy of the safener (efficacy code) (summer barley (HORVS); safener 100 g/ha): 2

COC(=O)COc1nc(-c2ccc(Cl)cn2)n(-c2ccc(Cl)cc2F)n1 [I.28-49]
Efficacy of the safener (efficacy code) (summer barley (HORVS); safener 100 g/ha): 2 | Efficacy of the safener (efficacy code) (summer wheat (TRZAS); safener 100 g/ha): 2

COC(=O)COc1nc(-c2ncccc2F)n(-c2ccc(Cl)cc2F)n1 [I.64-49]
Efficacy of the safener (efficacy code) (summer barley (HORVS); safener 500 g/ha): 2 | Efficacy of the safener (efficacy code) (summer wheat (TRZAS); safener 500 g/ha): 2

O=C(O)COc1nc(-c2ccc(F)cn2)n(-c2ccc(Cl)cc2F)n1 [I.33-49]
Efficacy of the safener (efficacy code) (summer wheat (TRZAS); safener 100 g/ha): 2

O=C(COc1nc(-c2ccc(Cl)cn2)n(-c2ccc(F)cc2F)n1)OCC1CCOC1 (centres unmarked) [I.69-38]
Efficacy of the safener (efficacy code) (summer barley (HORVS); safener 100 g/ha): 2-3

O=C(O)COc1nc(-c2ccc(Cl)cn2)n(-c2ccc(F)cc2F)n1 [I.30-38, {[5-(5-Chloropyridin-2-yl)-1-(2,4-difluorophenyl)-1H-1,2,4-triazol-3-yl]oxy}acetic acid]
Efficacy of the safener (efficacy code) (summer barley (HORVS); safener 100 g/ha): 2 | Efficacy of the safener (efficacy code) (summer wheat (TRZAS); safener 100 g/ha): 2
